“And” between values parts separate entries of the source, which are not always exact repeats. Equal entries are not always repeated.
What was measured:
CSF1R = CSF1R (Homo sapiens, UniProt P07333); experiment: CSF1R kinase inhibition assay; format: biochemical; conditions: read-out: IC50 CSF1R enzymatic activity
Description: For CSF1R inhibition, TK-substrate-biotin and ATP were incubated at room temperature for 40 min, followed by adding different concentrations of […] and TK-antibody-Cryptate into each well of the assay plate and incubation at room temperature for 1 h. The fluorescence signal was read at 615 nm (Cryptate) and 665 nm (XL665) on an Envision 2104 plate reader.

Ba/F3-FLT3-ITD (Y842H) = Ba/F3-FLT3-ITD (Y842H) proliferation assay; format: cell-based, mouse
Description: The recombinant Ba/F3 cell lines overexpressing human CSF1R, or human RBM6-CSF1R, or human ETV6-CSF1R were generated using a retrovirus vector (Kyinno Co., Ltd. Beijing). The recombinant Ba/F3 lines overexpressing human Kras G12C orEGFR-L718Q mutants, and different mutant variants of FLT3 were also similarly created as well. A standard proliferation assay via CTG readout was performed according to the vendor’s instructions (KYinno Biotechnology Co., Ltd. Beijing).

C-Kit = C-Kit (Homo sapiens, UniProt P10721); experiment: Additional kinase inhibition panel; format: biochemical
Text: (§1) Supplement 41598_2024_59650_MOESM2_ESM.docx, table 4: Supplemental Table S4. IC50 of Narazaciclib against additional kinases | column: Narazaciclib (µM); Narazaciclib metabolite (µM)

CDK9 = CDK9 (Homo sapiens, UniProt P50750); experiment: Additional kinase inhibition panel; format: biochemical
Text: as §1

FGFR1 = FGFR1 (Homo sapiens, UniProt P11362); experiment: Additional kinase inhibition panel; format: biochemical
Text: as §1

FGFR2 = FGFR2 (Homo sapiens, UniProt P21802); experiment: Additional kinase inhibition panel; format: biochemical
FGFR2, sequence (P21802 22-821): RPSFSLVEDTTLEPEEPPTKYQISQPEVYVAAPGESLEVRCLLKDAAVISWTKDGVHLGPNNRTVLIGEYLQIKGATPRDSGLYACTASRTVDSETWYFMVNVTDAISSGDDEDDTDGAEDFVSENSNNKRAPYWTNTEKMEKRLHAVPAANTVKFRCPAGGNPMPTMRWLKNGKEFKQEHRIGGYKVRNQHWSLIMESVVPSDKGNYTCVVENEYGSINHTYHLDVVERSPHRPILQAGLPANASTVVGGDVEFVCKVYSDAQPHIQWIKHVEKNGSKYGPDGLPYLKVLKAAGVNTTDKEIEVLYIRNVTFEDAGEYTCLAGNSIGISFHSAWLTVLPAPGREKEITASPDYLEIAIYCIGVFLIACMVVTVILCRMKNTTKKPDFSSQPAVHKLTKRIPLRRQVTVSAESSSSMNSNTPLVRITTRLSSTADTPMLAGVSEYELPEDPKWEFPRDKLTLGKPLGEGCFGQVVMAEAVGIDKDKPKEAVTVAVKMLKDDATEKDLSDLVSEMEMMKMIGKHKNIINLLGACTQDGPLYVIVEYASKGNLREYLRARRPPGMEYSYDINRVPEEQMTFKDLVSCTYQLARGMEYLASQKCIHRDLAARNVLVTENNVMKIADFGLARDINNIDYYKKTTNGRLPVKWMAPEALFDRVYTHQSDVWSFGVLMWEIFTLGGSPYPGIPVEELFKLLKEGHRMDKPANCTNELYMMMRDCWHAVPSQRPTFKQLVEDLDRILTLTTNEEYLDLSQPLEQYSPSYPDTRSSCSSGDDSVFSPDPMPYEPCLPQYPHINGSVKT
Text: as §1

FGFR3 = FGFR3 (Homo sapiens, UniProt P22607); experiment: Additional kinase inhibition panel; format: biochemical
Text: as §1

FGFR4 = FGFR4 (Homo sapiens, UniProt P22455); experiment: Additional kinase inhibition panel; format: biochemical
Text: as §1

PDGFRα = PDGFRα (Homo sapiens, UniProt P16234); experiment: Additional kinase inhibition panel; format: biochemical
PDGFRα, sequence (P16234 24-1089): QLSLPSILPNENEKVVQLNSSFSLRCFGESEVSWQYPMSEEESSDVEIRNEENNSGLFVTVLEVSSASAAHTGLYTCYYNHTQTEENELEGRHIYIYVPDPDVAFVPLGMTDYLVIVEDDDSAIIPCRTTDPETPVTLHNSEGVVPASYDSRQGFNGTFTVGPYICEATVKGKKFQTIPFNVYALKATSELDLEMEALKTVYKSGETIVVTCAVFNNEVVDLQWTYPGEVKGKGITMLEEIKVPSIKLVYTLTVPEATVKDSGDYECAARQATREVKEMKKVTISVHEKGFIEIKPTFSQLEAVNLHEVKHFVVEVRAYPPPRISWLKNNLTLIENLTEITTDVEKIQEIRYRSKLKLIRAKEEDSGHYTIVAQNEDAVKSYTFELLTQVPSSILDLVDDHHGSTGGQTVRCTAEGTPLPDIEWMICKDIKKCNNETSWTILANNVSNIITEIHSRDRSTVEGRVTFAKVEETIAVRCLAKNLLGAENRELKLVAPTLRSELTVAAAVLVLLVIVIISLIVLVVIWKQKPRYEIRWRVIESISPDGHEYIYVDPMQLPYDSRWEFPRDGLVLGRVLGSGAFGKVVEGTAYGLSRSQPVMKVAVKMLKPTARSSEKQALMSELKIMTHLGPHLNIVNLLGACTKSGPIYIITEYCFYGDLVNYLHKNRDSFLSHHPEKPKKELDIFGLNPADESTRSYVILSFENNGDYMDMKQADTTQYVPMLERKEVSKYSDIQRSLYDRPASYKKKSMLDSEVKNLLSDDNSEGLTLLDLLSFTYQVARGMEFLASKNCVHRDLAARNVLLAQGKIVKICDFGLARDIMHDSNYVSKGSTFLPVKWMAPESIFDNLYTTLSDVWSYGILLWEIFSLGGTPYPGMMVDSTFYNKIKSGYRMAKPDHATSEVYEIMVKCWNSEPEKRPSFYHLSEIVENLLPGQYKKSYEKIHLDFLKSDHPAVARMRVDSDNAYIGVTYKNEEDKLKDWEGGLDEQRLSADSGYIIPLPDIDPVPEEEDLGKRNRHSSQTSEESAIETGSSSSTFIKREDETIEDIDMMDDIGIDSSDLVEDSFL
Text: as §1

PDGFRβ = PDGFRβ (Homo sapiens, UniProt P09619); experiment: Additional kinase inhibition panel; format: biochemical
PDGFRβ, sequence (P09619 33-1106): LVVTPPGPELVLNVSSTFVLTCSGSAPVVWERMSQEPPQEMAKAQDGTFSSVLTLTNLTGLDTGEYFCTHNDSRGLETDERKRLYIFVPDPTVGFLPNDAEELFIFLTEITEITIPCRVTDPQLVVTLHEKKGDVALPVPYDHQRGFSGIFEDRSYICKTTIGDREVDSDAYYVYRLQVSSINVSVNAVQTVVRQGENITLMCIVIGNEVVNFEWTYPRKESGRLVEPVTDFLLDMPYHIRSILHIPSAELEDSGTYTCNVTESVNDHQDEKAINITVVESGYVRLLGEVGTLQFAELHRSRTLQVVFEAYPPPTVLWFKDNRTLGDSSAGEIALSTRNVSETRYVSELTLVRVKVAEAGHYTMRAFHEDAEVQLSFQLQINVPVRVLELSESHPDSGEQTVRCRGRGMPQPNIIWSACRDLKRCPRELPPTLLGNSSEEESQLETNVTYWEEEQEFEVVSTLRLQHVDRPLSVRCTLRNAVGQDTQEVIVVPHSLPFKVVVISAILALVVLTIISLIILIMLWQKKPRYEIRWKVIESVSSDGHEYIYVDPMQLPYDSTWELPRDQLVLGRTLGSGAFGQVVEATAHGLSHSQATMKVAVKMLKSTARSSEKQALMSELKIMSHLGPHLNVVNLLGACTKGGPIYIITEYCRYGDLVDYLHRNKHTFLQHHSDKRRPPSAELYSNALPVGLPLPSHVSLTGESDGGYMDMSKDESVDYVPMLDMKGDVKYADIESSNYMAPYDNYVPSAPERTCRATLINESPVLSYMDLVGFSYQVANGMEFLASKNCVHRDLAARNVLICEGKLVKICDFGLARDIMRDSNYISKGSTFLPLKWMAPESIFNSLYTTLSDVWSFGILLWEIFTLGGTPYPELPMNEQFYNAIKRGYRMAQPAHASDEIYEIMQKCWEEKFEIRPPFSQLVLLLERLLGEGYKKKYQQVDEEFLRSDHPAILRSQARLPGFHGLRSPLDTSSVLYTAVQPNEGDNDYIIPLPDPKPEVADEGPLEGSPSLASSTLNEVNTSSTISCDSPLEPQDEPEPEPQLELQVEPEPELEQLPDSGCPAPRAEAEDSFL
Text: as §1

SIK1 = SIK1 (Homo sapiens, UniProt P57059); experiment: Additional kinase inhibition panel; format: biochemical
Text: as §1

SIK2 = SIK2 (Homo sapiens, UniProt Q9H0K1); experiment: Additional kinase inhibition panel; format: biochemical
SIK2, sequence (Q9H0K1 whole entry): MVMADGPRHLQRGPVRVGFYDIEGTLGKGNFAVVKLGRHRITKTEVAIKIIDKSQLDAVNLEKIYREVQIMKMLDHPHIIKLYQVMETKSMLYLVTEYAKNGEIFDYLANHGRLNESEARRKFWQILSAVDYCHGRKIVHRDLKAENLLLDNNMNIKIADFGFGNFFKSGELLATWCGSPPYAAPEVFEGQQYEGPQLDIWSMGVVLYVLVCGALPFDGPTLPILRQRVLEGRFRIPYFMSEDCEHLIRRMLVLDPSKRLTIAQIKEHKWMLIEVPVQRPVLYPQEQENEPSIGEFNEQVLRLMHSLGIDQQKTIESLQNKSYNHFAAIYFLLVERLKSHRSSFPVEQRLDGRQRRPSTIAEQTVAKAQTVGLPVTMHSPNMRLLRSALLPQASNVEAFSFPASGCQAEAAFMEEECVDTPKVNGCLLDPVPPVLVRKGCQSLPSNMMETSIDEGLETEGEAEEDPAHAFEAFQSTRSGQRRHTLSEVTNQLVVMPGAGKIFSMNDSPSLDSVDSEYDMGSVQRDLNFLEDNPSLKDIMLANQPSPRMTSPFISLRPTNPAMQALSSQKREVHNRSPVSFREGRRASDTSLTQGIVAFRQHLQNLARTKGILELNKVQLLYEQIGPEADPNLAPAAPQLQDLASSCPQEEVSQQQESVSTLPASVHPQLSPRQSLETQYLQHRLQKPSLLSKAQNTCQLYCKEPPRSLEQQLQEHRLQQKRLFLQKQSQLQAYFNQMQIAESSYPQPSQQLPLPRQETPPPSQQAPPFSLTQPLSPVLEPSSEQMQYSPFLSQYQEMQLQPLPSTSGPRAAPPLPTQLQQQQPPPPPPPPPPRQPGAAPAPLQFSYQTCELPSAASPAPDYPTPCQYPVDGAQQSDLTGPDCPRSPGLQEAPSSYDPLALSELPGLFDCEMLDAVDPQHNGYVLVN
Text: as §1

SIK3 = SIK3 (Homo sapiens, UniProt Q9Y2K2); experiment: Additional kinase inhibition panel; format: biochemical
Text: as §1

AM5512 AML-PDX = experiment: AM5512 systemic AML-PDX model; format: in vivo, NOD/scid mice; conditions: AM5512, 100 mg/kg orally every day
Description: For systemic AML-PDX models, the model establishment and narazaciclib pharmacology experiment were performed essentially as described previously. Briefly, 2 × 10^6 AM7407 cells, or 2 × 10^6 AM7577 cells, or 2 × 10^6 AM5512 cells, or 1.65 × 10^6 AM8096 cells were inoculated intravenously into 4- to 5-week-old female NOD/scid mice for AML development. Engraftment was confirmed by the presence of circulating human CD45+ cells (anti-human CD45 antibody, Cat. 304038, Biolegend) in peripheral blood. Mice with successful engraftment of AML-PDX were randomized into different treatment groups (N = 6) and received their designated treatments. Narazaciclib was administrated orally or intraperitoneally at 10 mg/kg, or 30 mg/kg, or 100 mg/kg every day throughout the study, while Cytarabine was administrated intraperitoneally at 3 mg/kg every day. Following the initiation of designated treatments, leukemic burden was monitored by flow cytometry with anti-human CD45 antibody on the peripheral blood every week as well as on the peripheral blood, bone marrow cells and splenocytes of mice at sacrifice. Mice were sacrifice once the followings are observed: body weight loss over 20%, reduced motility and activity, labored breathing, ruffled coat, hunched back and severe dehydration.

CSF1R, sequence (P07333 20-972): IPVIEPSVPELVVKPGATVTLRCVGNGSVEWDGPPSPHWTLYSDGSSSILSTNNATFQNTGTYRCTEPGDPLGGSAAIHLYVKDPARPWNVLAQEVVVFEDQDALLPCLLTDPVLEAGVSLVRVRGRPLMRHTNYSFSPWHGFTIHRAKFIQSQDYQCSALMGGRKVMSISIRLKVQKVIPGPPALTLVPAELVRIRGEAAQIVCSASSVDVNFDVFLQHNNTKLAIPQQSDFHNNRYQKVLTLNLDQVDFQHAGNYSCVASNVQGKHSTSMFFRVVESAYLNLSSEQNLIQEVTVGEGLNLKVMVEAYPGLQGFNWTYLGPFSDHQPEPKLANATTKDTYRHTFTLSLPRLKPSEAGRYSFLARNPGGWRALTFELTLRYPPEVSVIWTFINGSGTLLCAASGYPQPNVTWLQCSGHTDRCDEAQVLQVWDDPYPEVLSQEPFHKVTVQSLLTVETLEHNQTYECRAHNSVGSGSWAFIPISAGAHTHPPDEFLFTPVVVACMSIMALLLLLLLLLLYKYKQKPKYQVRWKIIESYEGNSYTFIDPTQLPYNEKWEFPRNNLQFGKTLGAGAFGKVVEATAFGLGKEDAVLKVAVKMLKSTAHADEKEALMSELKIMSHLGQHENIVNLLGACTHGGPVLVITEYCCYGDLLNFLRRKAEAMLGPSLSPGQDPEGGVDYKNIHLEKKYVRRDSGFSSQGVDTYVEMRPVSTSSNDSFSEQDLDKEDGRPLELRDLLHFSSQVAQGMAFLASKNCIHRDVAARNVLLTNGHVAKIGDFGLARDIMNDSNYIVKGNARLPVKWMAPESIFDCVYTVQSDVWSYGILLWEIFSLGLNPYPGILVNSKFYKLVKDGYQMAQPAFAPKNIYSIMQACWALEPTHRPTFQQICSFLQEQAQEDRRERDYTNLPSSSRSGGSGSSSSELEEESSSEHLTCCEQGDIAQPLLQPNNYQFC

Structure (SMILES): CN1CCN(c2ccc(Nc3ncc4cc(C#N)c(=O)n(C5CCCC5)c4n3)cc2)CC1 [Narazaciclib, narazaciclib]
- IC50 (CSF1R): ~0.285 nM and 0.29 nM
- % of Ba/F3-FLT3 (IC50) (Ba/F3-FLT3-ITD (Y842H)): 11.20%
- IC50 (Ba/F3-FLT3-ITD (Y842H); Mus musculus): 33.7 nM
- IC50 (C-Kit): 9 nM
- IC50 (CDK9): 28 nM
- IC50 (FGFR1): 38 nM
- IC50 (FGFR2): 20 nM
- IC50 (FGFR3): 187 nM
- IC50 (FGFR4): 2740 nM
- IC50 (PDGFRα): 104 nM
- IC50 (PDGFRβ): 10 nM
- IC50 (SIK1): 34 nM
- IC50 (SIK2): 2 nM
- IC50 (SIK3): 24 nM
- response of model (AM5512 AML-PDX): did not respond
